Test results reported in patent publication US6194217A, “Method of diagnosing or categorizing disorders from biochemical profiles” (ESA, Inc., priority 1993, dated 2001).
Where two headings read alike, the source gives them in different places.

What was measured:
[1] = Stability in perchloric acid extracts of nasal secretions over 24 hours at room temperature; format: physicochemical
Excerpt: (§1) Two characteristics make nasal secretions attractive for neurochemical analysis. The secretions are close to the site or origin of the compounds being measured and they are in a strong reducing environment. Oxidation potential measurements of saline suspensions of nasal secretions with platinum vs. Ag/Ag/cl yield values from -0.230 to -0.300 mV compared to lumbar CSF values of -0.050 to -0.170. The reducing character of the tissue is consistent with observation of a large number of easily oxidized peaks on the lower channels of the chromatographic pattern. The reducing character of the sample makes it highly attractive for clinical use because of the stability inferred for the target compounds. Indeed preliminary studies indicate no change in 5-hydroxyindoleacetic acid or homovanillic acid over 24 hours in perchloric acid extracts at room temperature. From the number of peaks in the 35-50 min region, the nasal mucosa also appear to be a stable matrix for small peptides, including fragments of β-amyloid peptide.
Swabs were extracted by cutting the tip and placing it in 300 μl of 0.1 M HClO4, they ere vortexed for 1 min. centrifuged and then reextracted in another 300 μl of 0.1 M HClO4. […] Following centrifugation the pellets are combined, and can be extracted with 40:60 acetonitrilehexane for analysis of ubiquinones and larger peptides.

[2] = Incubation of β-amyloid in saline suspensions of nasal mucosa, development of electroactive peaks; format: in vitro ADME; conditions: over 6 hours, FIG. 7
Excerpt: as §1

In the case of `COc1cc(CC(=O)O)ccc1O` [homovanillic acid], the “change over 24 hours (stability)” value ([1]; 24 hours, perchloric acid extracts, room temperature, preliminary studies) is reported as “no change”.
For β-amyloid, the “development of electroactive peaks” value [2] was “development over 6 hours of electroactive peaks” and the “electroactive peaks which corresponded to original peaks in the suspension” value [2] was “five”.
In the case of `O=C(O)Cc1c[nH]c2ccc(O)cc12` [5-hydroxyindoleacetic acid], the “change over 24 hours (stability)” value [1] is reported as “no change”.
